As usually defined, the ED50 is the dose that gives a 50% effect, or the effect in half of the subjects. A word on the IC50: it is the point on the concentration scale where inhibition reaches its midpoint.

For one test, the system named is PAF-induced hypotension. Description: reversal of hypotension caused by an infusion of PAF in rats. Format: in vivo, Male Sprague-Dawley rats. The following applies: iv; i.v. bolus; PAF 100 ng/kg/min infused i.v.; anaesthetised rat; read-out: inhibition of PAF-induced hypotension in the rat, ED50 (dose to cause a 50% reversal of the hypotensive PAF response). On the procedure: Male Sprague-Dawley rats (300-350 g) were anaesthetised with a mixture of sodium pentobarbitone, 22.5 mg/kg and thiopental 62.5 mg/kg. Through a midline incision in the neck, the trachea was cannulated and the animals breathed spontaneously. A carotid artery was cannulated for the measurement of blood pressure and this signal was used to trigger a rate meter to measure heart rate. Both jugular veins were cannulated: one for the infusion of PAF and the other for the bolus administration of test compounds.
PAF, 100 ng/kg/min was infused i.v. until a sustained fall in mean blood pressure of 50 mmHg was achieved. […] The peak of this reversal was measured and the dose to cause a 50% reversal of the hypotensive PAF response (ED50) calculated by straight line interpolation and the results are presented in Table 2.

The target of test [1] is T1, platelet activating factor (PAF) receptor (human platelet plasma membrane) (Homo sapiens, UniProt P25105).
T1 construct: Platelet concentrates were obtained from a hospital blood bank; from tissue; host or cells: human platelets (hospital blood bank concentrates), lysed plasma membrane preparation
T1 sequence (P25105 whole entry): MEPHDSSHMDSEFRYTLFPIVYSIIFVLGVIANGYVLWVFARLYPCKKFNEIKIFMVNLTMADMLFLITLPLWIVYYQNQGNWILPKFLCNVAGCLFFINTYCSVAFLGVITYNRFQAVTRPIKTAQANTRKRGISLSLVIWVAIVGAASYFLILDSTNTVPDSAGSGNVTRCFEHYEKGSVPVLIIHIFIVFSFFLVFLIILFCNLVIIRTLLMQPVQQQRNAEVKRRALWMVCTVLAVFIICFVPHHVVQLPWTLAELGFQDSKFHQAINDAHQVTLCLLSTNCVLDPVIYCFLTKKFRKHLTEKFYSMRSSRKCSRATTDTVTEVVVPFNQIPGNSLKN
Briefly: inhibition of [^3 H]-PAF receptor binding to human platelet plasma membrane. The conditions noted are these: [^3 H]-PAF 0.5 nM, 0° C., 1 hour, pH 7.0. As for the experimental part: The inhibition of [^3 H]-PAF binding to human platelet plasma membrane by compounds of general formula I was determined by isotopic labelling and filtration techniques. Platelet concentrates were obtained from a hospital blood bank. These platelet concentrates (500-2500 ml.) were centrifuged at 800 rpm for 10 minutes in a SORVALL RC3B centrifuge to remove the red blood cells present. (The word SORVALL is a trade mark.) The supernatant was subsequently centrifuged at 3,000 rpm in a SORVALL RC3B centrifuge to pellet the platelets present. The platelet rich pellets were resuspended in a minimum volume of buffer (150 mM NaCl, 10 mM Tris, 2 mM EDTA, pH 7.5) and layered onto Ficoll-Paque gradients, 9 ml platelet concentrate to 2 ml Ficoll, and centrifuged at 1,900 rpm for 15 minutes in a SORVALL RT6000 centrifuge. This step removes the residual red blood cells and other nonspecific material such as lymphocytes from the preparation. The platelets which form a band between the plasma and the Ficoll were removed, resuspended in the above buffer and centrifuged at 3,000 rpm for 10 minutes in a SORVALL RT6000 centrifuge. The pelleted platelets were resuspended in buffer (10 mM Tris, 5 mM MgCl2, 2 mM EDTA, pH 7.0), snap freezed in liquid N2 and allowed to thaw slowly at room temperature in order to lyse the platelets. The latter step was repeated at least 3 times to ensure proper lysis. The lysed platelets were centrifuged at 3,000 rpm for 10 minutes in a SORVALL RT6000 centrifuge and resuspended in buffer. The latter step was repeated twice in order to remove any cytoplasmic proteins which may hydrolyse the platelet activating factor (PAF) receptor. The prepared platelet membranes may be stored at -70° C. After thawing the prepared membranes were centrifuged in a SORVALL RT6000 at 3,000 rpm for 10 minutes and resuspended in assay buffer.
The assay was conducted by preparing a series of Tris-buffered solutions of the selected antagonist of predetermined concentrations. Each of these solutions contained [^3 H]-PAF (0.5 nM; 1-O-[^3 H]octadecyl-2-acetyl-sn-glycero-3-phosphoryl choline with a specific activity of 132 Ci/mmol), unlabelled PAF (1000 nM), a known amount of the test antagonist, and a sufficient amount of Tris-buffer solution (10 mM Tris, 5 mM MgCl2, pH 7.0, 0.25% BSA) to make the final volume 1 ml. Incubation was initiated by the addition of 100 μg of the isolated membrane fraction to each of the above solutions at 0° C. Two control samples, one (C1 ) which contained all the ingredients described above except the antagonist and the other (C2) contains C1 plus a 1000-fold excess of unlabelled PAF, were also prepared and incubated simultaneously with the test samples.
After 1 hour incubation, each solution was filtered rapidly under vacuo through a WHATMAN GF/C glass fibre filter in order to separate unbound PAF from bound PAF. (The word WHATMAN is a trade mark.) The residue in each case was rapidly washed 4 times with 5 ml cold (4° C.) Tris-buffer solution. Each washed residue was dried under vacuum on a sampling manifold and placed into vials containing 20 ml of OPTIPHASE MP scintillation fluid and the radioactivity counted in a liquid scintillation counter. (The word OPTIPHASE is a trade mark.) Defining the counts for total binding with antagonist from a test sample as "TBA"; the counts for total binding from the control sample C1 as "TB"; and the counts for nonspecific binding from the control sample C2 as "NSB", the percent inhibition of each test antagonist can be determined by the following equation:
Inhibition=[(TB-TBA)/SB]×100
where the specific binding SB=TB-NSB
Table 1 lists results from this assay for inhibition of [^3 H]-PAF receptor binding for illustrative examples of the compounds of this invention. […]

Test [2] relates to platelet activating factor. Description: antagonism of platelet activating factor (statement in words).

In the case of `CN(C(=O)c1ccc(Cn2cnc3cnccc32)cc1)C1CCCCC1` [Comparative Example, N-Cyclohexyl-N-methyl-4-(1H-imidazo[4,5-c]pyridinylmethyl)benzamide, reference compound], in the test with PAF-induced hypotension, the ED50 stood at 150 µg/kg. With `Cc1nc2cnccc2n1Cc1ccc(S(=O)(=O)N(C)[C@H](CO)CC(C)C)cc1` [Example 1, N-Methyl-N-4-(1H-2-methylimidazo[4,5-c]pyridinylmethyl)phenylsulphonyl-L-leucinol], in test [1], the IC50 came to 7 nM. In the case of `CCCCCCCCCCCCCCCCCC(=O)OC[C@H](CC(C)C)N(C)S(=O)(=O)c1ccc(Cn2c(C)nc3cnccc32)cc1` [Example 44, O-Octadecanoyl-N-methyl-N-4-(1H-2-methylimidazo[4,5-c]pyridinylmethyl)phenylsulphonyl-L-leucinol], the IC50 in test [1] was found to be 1 nM. Also, the ED50 in the test on PAF-induced hypotension is 4.6 µg/kg. In turn, `CCC(=O)OC[C@H](CC(C)C)N(C)S(=O)(=O)c1ccc(Cn2c(C)nc3cnccc32)cc1` [Example 45, O-Propanoyl-N-methyl-N-4-(1H-2-methylimidazo[4,5-c]pyridinylmethyl)phenylsulphonyl-L-leucinol] had an IC50 in test [1] of 0.5 nM. Same read-out and setting: for `CCOC(=O)C(=O)OC[C@H](CC(C)C)N(C)S(=O)(=O)c1ccc(Cn2c(C)nc3cnccc32)cc1` [Example 47, O-Ethyloxaloyl-N-methyl-N-4-(1H-2-methylimidazo[4,5-c]pyridinylmethyl)phenylsulphonyl-L-leucinol] the value was 2 nM. The compound `CC(=O)Oc1ccccc1C(=O)OC[C@H](CC(C)C)N(C)S(=O)(=O)c1ccc(Cn2c(C)nc3cnccc32)cc1` [Example 49, O-2-Acetoxybenzoyl-N-methyl-N-4-(1H-2-methylimidazo[4,5-c]pyridinylmethyl)phenylsulphonyl-L-leucinol] returned an IC50 in test [1] of 2 nM. Also, the ED50 in the test with PAF-induced hypotension is 2.2 µg/kg. In the case of `COc1ccc(SCC(=O)OC[C@H](CC(C)C)N(C)S(=O)(=O)c2ccc(Cn3c(C)nc4cnccc43)cc2)cc1OC` [Example 78, O-2-(3,4-Dimethoxyphenylmercapto)ethanoyl-N-methyl-N-4-(1H-2-methylimidazo[4,5-c]pyridinylmethyl)phenylsulphonyl-L-leucinol], the median effective dose (ED50) in the test with PAF-induced hypotension turned out to be 5.8 µg/kg. The compound `CC1=C(/C=C/C(C)=C/C=C/C(C)=C/C(=O)OC[C@H](CC(C)C)N(C)S(=O)(=O)c2ccc(Cn3c(C)nc4cnccc43)cc2)C(C)(C)CCC1` [Example 79, O-Retinoyl-N-methyl-N-4-(1H-2-methylimidazo[4,5-c]pyridinylmethyl)phenylsulphonyl-L-leucinol] yielded an IC50 in test [1] of 4 nM.

As for `Cc1nc2cnccc2n1Cc1ccc(S(=O)(=O)N(C)[C@H](COC(=O)NCc2ccccn2)CC(C)C)cc1` [Example 108, O-Pyridin-2-ylmethylaminocarbonyl-N-methyl-N-4-(1H-2-methylimidazo[4,5-c]pyridinylmethyl)phenylsulphonyl-L-leucinol], the ED50 in the test with PAF-induced hypotension worked out at 6.6 µg/kg.

`CCCCCCCCCCCCCCCCCCNC(=O)OC[C@H](CC(C)C)N(C)S(=O)(=O)c1ccc(Cn2c(C)nc3cnccc32)cc1` [Example 109, O-Octadecylaminocarbonyl-N-methyl-N-4-(1H-2-methylimidazo[4,5-c]pyridinylmethyl)phenylsulphonyl-L-leucinol]: in test [1], the concentration for half-maximal inhibition (IC50) was determined as 3 nM. Turning to `Cc1noc([C@H](CC(C)C)N(C)S(=O)(=O)c2ccc(Cn3c(C)nc4cnccc43)cc2)n1` [Example 155, N-Methyl-N-4-(1H-2-methylimidazo[4,5-c]pyridinylmethyl)phenylsulphonyl-1-(3-methyl-1,2,4-oxadiazol-5-yl)-3-methylbutylamine], the IC50 in test [1] was determined as 2 nM. `CCc1noc([C@H](CC(C)C)N(C)S(=O)(=O)c2ccc(Cn3c(C)nc4cnccc43)cc2)n1` [Example 156, N-Methyl-N-4-(1H-2-methylimidazo[4,5-c]pyridinylmethyl)phenylsulphonyl-1-(3-ethyl-1,2,4-oxadiazol-5-yl)-3-methylbutylamine]: in the test with PAF-induced hypotension, the ED50 is 0.6 µg/kg.

As to `Cc1nc2ccncc2n1Cc1ccc(S(=O)(=O)N(C)Cc2cccs2)cc1` [N-methyl-N-4-(3 H-2-methylimidazo[4,5-c]pyridinylmethyl)phenylsulphonyl-2-thienylmethylamine], the “antagonism of platelet activating factor (in words)” value in test [2] is recorded as “are antagonists of platelet activating factor”.

On to `Cc1nc2ccn(Cc3ccc(S(=O)(=O)N(C)Cc4cccs4)cc3)cc-2n1` [N-methyl-N-4-(5H-2-methylimidazo[4,5-c]pyridinylmethyl)phenylsulphonyl-2-thienylmethylamine], for which the “antagonism of platelet activating factor (in words)” value in test [2] is reported as “are antagonists of platelet activating factor”.

Source of the values: patent US5516783A, “4-(1H-2-methylimidazo[4,5-c]pyridinylmethyl)phenylsulphonamide derivatives as antagonist of PAF” (British Biotech Pharmaceuticals Limited, priority 1992, dated 1996).
